The record followed here is US7056900B2, “Disaccharide derivatives for treating hyperglycaemia” (Sudzucker Aktiengesellschaft Mannheim Ochsenfurt, priority 1997, dated 2006).

Usually Km stands for the substrate concentration at which the rate is half of its maximum.

Entries after “also recorded” stand apart in the source; their conditions may differ. Read-outs that look alike come from different tables or passages of the source.

Common to all, as to type: biochemical, hog
Assay [1] deals with T1, sucrase/isomaltase (SI) (Sus scrofa, UniProt P56729). Put plainly: Cleavage on incubation (24 hours) with SI. To be noted: 37° C. Here is the method:
(§1) Sucrase/isomaltase (SI) and glucoamylase/maltase (GM) were isolated by papain digestion from hog small intestine mucosa and enriched by ammoniumsulfate precipitation. […] D) A study was first made as to what extent the inventive disaccharide derivatives and comparison substances, that is to say sucrose and maltose, were cleaved by SI or by GM during incubation for 24 hours. [table]

Assay [2] relates to glucoamylase/maltase (GM). Put plainly: Cleavage on incubation (24 hours) with GM. The conditions noted are these: 37° C. Here is the method:
as §1

In assay [3] the test system is glucoamylase/maltase (GM). Kind of assay: Inhibition of GM-catalyzed hydrolysis of maltose (GM/maltose), coupled HK/G6PDH optical test. To be noted: for KM/Ki / inhibitor strength (in words) / Ki: GM/maltose; for Ki: secondary Lineweaver-Burk plots. Here is the method:
(§2) The maltase activity was studied using the substrate maltose. Sucrase/isomaltase (SI) and glucoamylase/maltase (GM) were isolated by papain digestion from hog small intestine mucosa and enriched by ammoniumsulfate precipitation. […] B) In the methods described hereinafter for determining the enzyme activity of sucrase/isomaltase and glucoamylase/maltase under the influence of the substances tested, the amount of glucose or fructose released was determined as measured parameter. This took place in an enzymatic optical test using hexokinase (HK) and glucose-6-phosphate dehydrogenase (G6PDH) as a coupled detection system (Beutler, H.-O.; in: Methods of Enzymatic Analysis; Bergmeyer, H. U.; Bergmeyer, […] edition; Vol. […] The measurement was made at 37° C. and a pH of 7.0. The table below reports the composition of the assays necessary for the individual tests. In individual tests, the semimicro assay was used, but this was reduced in some cases to a micro assay. […] C) Before the inhibitor strengths were determined, for each enzyme-substrate combination basic kinetics were established in which not only the Michaelis-Menten constant (KM [mmol/l]) but also the maximum velocity (Vmax [μmol/mLmin]) were determined. […] The level of the inhibitor concentrations used depended on the strength of the resulting inhibition. For each of the enzyme-substrate combinations, 3 to 4 sets of kinetics at different inhibitor concentrations were established. The inhibitor constants Ki and Kii were, unless stated otherwise, determined from secondary Lineweaver-Burk plots.

Assay [4] concerns the target T1, sucrase/isomaltase (SI). Put plainly: Inhibition of SI-catalyzed hydrolysis of isomaltose (SI/isomaltose), coupled HK/G6PDH optical test. Also on record: isolated by papain digestion from hog small intestine mucosa and enriched by ammoniumsulfate precipitation; from tissue; host or cells: hog small intestine mucosa; key to Type (of inhibition): K means competitive inhibition; NK means noncompetitive inhibition; UK means uncompetitive inhibition. To be noted: for KM/Ki / Type (of inhibition) / inhibitor strength (in words) / Ki: SI/isomaltose; for Ki: secondary Lineweaver-Burk plots. From the text: (§3) A) The activity of the SI enzyme complex was studied using three different substrates, that is to say sucrose, maltose and isomaltose.
The isomaltase activity was studied using the substrate isomaltose.
(§4) Sucrase/isomaltase (SI) and glucoamylase/maltase (GM) were isolated by papain digestion from hog small intestine mucosa and enriched by ammoniumsulfate precipitation. The enzymes were separated into isolated sucrase/isomaltase (SI) and glucoamylase/maltase (GM) via an ion exchanger (DEAE cellulose), and a following fine fractionation using gel filtration on a Superdex 200 column from Pharmacia.
(§5) B) In the methods described hereinafter for determining the enzyme activity of sucrase/isomaltase and glucoamylase/maltase under the influence of the substances tested, the amount of glucose or fructose released was determined as measured parameter. This took place in an enzymatic optical test using hexokinase (HK) and glucose-6-phosphate dehydrogenase (G6PDH) as a coupled detection system (Beutler, H.-O.; in: Methods of Enzymatic Analysis; Bergmeyer, H. U.; Bergmeyer, J.; Graβl, M. (editors); 3rd edition; Vol. VI, 2–10). The measurement was made at 37° C. and a pH of 7.0.
(§6) The table below reports the composition of the assays necessary for the individual tests. In individual tests, the semimicro assay was used, but this was reduced in some cases to a micro assay.
(§7) C) Before the inhibitor strengths were determined, for each enzyme-substrate combination basic kinetics were established in which not only the Michaelis-Menten constant (KM [mmol/l]) but also the maximum velocity (Vmax [μmol/mLmin]) were determined. For the enzyme/substrate combination SI/sucrose, a substrate concentration of from 1.24 to 124 mmol/L was used, for the enzyme/substrate combination SI/maltose a substrate concentration of from 0.62 to 24.8 mmol/L was used, for the enzyme/substrate combination SI/isomaltose a substrate concentration of from 3.6 to 57.6 mmol/L was used and for the enzyme/substrate combination GM/maltose a substrate concentration of from 0.31 to 12.4 mmol/L was used in the assay.
(§8) The level of the inhibitor concentrations used depended on the strength of the resulting inhibition. For each of the enzyme-substrate combinations, 3 to 4 sets of kinetics at different inhibitor concentrations were established. The inhibitor constants Ki and Kii were, unless stated otherwise, determined from secondary Lineweaver-Burk plots.

In assay [5] the target is T1, sucrase/isomaltase (SI). Put plainly: Inhibition of SI-catalyzed hydrolysis of sucrose (SI/sucrose), coupled HK/G6PDH optical test.
Text: as §3, §4, §5, §6, §7, §8

In assay [6] the target is T1, sucrase/isomaltase (SI). Put plainly: Inhibition of SI-catalyzed hydrolysis of maltose (SI/maltose), coupled HK/G6PDH optical test.
Text: as §2, with “A) The activity of the SI enzyme complex was studied using three different substrates, that is to say sucrose, maltose and isomaltose. The maltase” for “The maltase”

Setting [7] is: cleavage product detected: glucose.
The mark [8] stands for this setting: cleavage product detected: fructose.
The mark [9] stands for this setting: SI/sucrose, secondary Lineweaver-Burk plots, read-out: Ki.
Setting [10] is: SI/sucrose, secondary Lineweaver-Burk plots, read-out: Kii.
Where [11] appears, read: SI/maltose, secondary Lineweaver-Burk plots, read-out: Ki.
The mark [12] stands for this setting: SI/maltose, secondary Lineweaver-Burk plots, read-out: Kii.

T1 sequence (P56729 with tags, fused parts or gaps): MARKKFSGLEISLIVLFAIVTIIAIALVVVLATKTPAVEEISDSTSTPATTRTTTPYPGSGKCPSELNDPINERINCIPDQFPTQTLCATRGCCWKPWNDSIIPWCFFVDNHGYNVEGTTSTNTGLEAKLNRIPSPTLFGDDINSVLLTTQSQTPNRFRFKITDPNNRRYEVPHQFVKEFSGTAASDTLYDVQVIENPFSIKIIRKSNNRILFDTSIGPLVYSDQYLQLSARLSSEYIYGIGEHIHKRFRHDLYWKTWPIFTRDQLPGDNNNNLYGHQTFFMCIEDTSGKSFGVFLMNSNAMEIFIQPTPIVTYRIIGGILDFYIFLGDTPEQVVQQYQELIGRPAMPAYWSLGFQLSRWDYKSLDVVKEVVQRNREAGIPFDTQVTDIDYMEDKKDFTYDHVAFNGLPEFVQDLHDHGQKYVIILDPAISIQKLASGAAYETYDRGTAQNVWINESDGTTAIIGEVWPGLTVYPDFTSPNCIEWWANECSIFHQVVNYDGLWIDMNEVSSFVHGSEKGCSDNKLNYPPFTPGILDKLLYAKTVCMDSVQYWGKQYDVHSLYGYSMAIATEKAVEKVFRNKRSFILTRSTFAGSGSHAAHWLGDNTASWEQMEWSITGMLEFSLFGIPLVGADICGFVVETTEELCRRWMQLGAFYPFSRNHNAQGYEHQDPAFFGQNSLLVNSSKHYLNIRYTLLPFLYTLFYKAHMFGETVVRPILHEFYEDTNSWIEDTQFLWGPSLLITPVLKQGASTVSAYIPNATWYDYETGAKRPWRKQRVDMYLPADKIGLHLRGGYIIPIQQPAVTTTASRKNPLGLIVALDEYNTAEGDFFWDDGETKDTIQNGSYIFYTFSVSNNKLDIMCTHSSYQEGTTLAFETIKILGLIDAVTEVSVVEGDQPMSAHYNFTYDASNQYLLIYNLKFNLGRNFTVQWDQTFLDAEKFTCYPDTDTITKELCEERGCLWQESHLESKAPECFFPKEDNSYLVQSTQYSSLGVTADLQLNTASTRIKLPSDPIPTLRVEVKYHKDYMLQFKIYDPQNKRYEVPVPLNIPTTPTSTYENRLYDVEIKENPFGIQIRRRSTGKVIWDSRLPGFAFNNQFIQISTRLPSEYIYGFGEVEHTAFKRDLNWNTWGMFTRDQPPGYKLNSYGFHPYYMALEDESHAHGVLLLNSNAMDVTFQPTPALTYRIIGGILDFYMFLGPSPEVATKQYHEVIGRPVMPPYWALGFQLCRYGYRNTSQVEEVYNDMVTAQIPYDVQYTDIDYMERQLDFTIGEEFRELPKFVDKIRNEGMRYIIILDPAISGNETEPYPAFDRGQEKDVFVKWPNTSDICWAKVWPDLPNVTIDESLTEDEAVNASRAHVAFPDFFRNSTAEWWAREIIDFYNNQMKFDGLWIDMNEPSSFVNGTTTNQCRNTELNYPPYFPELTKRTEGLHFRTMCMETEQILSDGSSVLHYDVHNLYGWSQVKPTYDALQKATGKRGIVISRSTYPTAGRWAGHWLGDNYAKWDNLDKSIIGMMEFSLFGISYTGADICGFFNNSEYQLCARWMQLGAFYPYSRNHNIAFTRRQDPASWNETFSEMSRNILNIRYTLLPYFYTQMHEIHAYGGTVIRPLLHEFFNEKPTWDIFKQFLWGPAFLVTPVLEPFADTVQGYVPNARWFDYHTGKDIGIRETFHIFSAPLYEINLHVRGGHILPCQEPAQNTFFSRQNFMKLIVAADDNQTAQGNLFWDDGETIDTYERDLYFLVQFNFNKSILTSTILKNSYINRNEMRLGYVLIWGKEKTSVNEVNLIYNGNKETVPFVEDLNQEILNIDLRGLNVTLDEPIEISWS

For the compound `OC[C@H]1O[C@H](O[C@H]2[C@H](O)[C@@H](O)C(O)O[C@@H]2CO)[C@H](O)[C@@H](O)[C@@H]1O` (mixture of isomers) [Maltose, reference compound], the SI conversion rate at sucrase/isomaltase (SI) [1] (setting [7]) is 100%. Besides, the GM conversion rate in assay [2] (setting [7]) is reported as 95.7%. Further, in assay [3] (GM/maltose basic kinetics, substrate, mean, 37° C., pH 7.0), the Michaelis-Menten constant (Km) was 4.2 ± 1 mM. The Vmax in assay [3] (GM/maltose basic kinetics, enzyme solution with maltase activity of 5 U/mL) was found to be 4.8 ± 0.7 U/mL.

At sucrase/isomaltase (SI) [1] (setting [8]), `N[C@H]1[C@H](O)[C@@H](CO)O[C@@]1(CO)O[C@H]1O[C@H](CO)[C@@H](O)[C@H](O)[C@H]1O` [3′-aminosucrose] came in with an SI conversion rate of 0%. Besides, the KM/Ki was determined as 8.2 at sucrase/isomaltase (SI) [4], 11530 at sucrase/isomaltase (SI) [5] (SI/sucrose), 2113 at sucrase/isomaltase (SI) [6] (SI/maltose) and 3.1 in assay [3]. For the same compound, the “Type (of inhibition)” value at sucrase/isomaltase (SI) [4] is given as “K”. For the same compound, the “inhibitor strength (in words)” value on sucrase/isomaltase (SI) [4] is listed as “strong to very strong”; at sucrase/isomaltase (SI) [5] (SI/sucrose), “to a high percentage even at very low concentrations; also recorded: strong to very strong”; at sucrase/isomaltase (SI) [6] (SI/maltose), “to a high percentage even at very low concentrations; also recorded: strong to very strong”; in assay [3], “to a high percentage even at very low concentrations; also recorded: strong to very strong”. Also, the GM conversion rate in assay [2] (setting [8]) stood at 0%. The enzymatic activity result at sucrase/isomaltase (SI) [5] (SI/sucrose, inhibitor concentration of 1 mmol/L) is reported as “no longer measurable”; at sucrase/isomaltase (SI) [6] (SI/maltose, inhibitor concentration of 1 mmol/L), “no longer measurable”. The Ki on sucrase/isomaltase (SI) [5] (SI/sucrose, with preincubation, Dixon evaluation, read-out: Ki) came out at 0.0065 mM; on sucrase/isomaltase (SI) [5] (SI/sucrose, with preincubation, Henderson evaluation, read-out: Ki), 0.0063 mM; on sucrase/isomaltase (SI) [5] (SI/sucrose, without preincubation, Dixon evaluation, read-out: Ki) it was 0.0052 mM; at sucrase/isomaltase (SI) [5] (SI/sucrose, without preincubation, Henderson evaluation, read-out: Ki) it was 0.005 mM; on sucrase/isomaltase (SI) [6] (SI/maltose, with preincubation, Dixon evaluation, read-out: Ki), 0.0046 mM; at sucrase/isomaltase (SI) [6] (SI/maltose, with preincubation, Henderson evaluation, read-out: Ki), 0.0046 mM. The Ki on sucrase/isomaltase (SI) [6] (SI/maltose, without preincubation, Dixon evaluation, read-out: Ki) was 0.0054 mM; at sucrase/isomaltase (SI) [6] (SI/maltose, without preincubation, Henderson evaluation, read-out: Ki), 0.0052 mM; in assay [3] (read-out: Ki), 1 mM; in assay [3] (read-out: Kii) it was 17 mM. In addition, the sucrose hydrolysis inhibited entry at sucrase/isomaltase (SI) [5] (concentration of 5 μmol/mL) is “about 30%”. Besides, the maltose hydrolysis inhibited entry at sucrase/isomaltase (SI) [6] (concentration of 5 μmol/mL) was “about 50%”.

On to `O=C(O)C1OC(OCC2OC(O)(CO)C(O)C2O)C(O)C(O)C1O` (centres unmarked) [Pal-C6′S, palatinose-C6′-acid], for which the SI conversion rate at sucrase/isomaltase (SI) [1] (setting [8]) is 0.4%. Besides, the KM/Ki at sucrase/isomaltase (SI) [4] turned out to be 3.7; on sucrase/isomaltase (SI) [5] (SI/sucrose) it was 8.4; on sucrase/isomaltase (SI) [6] (SI/maltose), 0.7; in assay [3] it was 0.22. In addition, on sucrase/isomaltase (SI) [4], the “Type (of inhibition)” value is reported as “K”. Besides, the “inhibitor strength (in words)” value is given as “strong to very strong” on sucrase/isomaltase (SI) [4], “strong to very strong” at sucrase/isomaltase (SI) [5] (SI/sucrose), “inhibitory action” on sucrase/isomaltase (SI) [6] (SI/maltose) and “inhibitory action” in assay [3]. Besides, in assay [2] (setting [8]), the GM conversion rate was found to be 0.1%. Also, the Ki on sucrase/isomaltase (SI) [5] (setting [9]) came to 7 mM; on sucrase/isomaltase (SI) [5] (setting [10]), 8 mM; at sucrase/isomaltase (SI) [6] (setting [11]) it was 16 mM; on sucrase/isomaltase (SI) [6] (setting [12]) it was 31 mM; in assay [3] (read-out: Ki) it was 20 mM.

As to `OC[C@H]1O[C@@](CO)(O[C@H]2O[C@H](CO)[C@@H](O)[C@H](O)[C@H]2O)[C@@H](O)[C@@H]1O` [Sucrose, reference compound], the SI conversion rate on sucrase/isomaltase (SI) [1] (setting [8]) is reported as 87%; at sucrase/isomaltase (SI) [1] (setting [7]), 85%.

With `OC[C@H]1O[C@H](OC[C@H]2OC(O)[C@H](O)[C@@H](O)[C@@H]2O)[C@H](O)[C@@H](O)[C@@H]1O` (some centres unmarked) [isomaltose, reference compound], at sucrase/isomaltase (SI) [4] (SI/isomaltose basic kinetics, substrate, mean, 37° C., pH 7.0), the Michaelis constant (Km) was 73.9 ± 6.8 mM. The Vmax on sucrase/isomaltase (SI) [4] (SI/isomaltose basic kinetics, enzyme solution with maltase activity of 5 U/mL) worked out at 3.07 ± 0.18 U/mL.

sucrose-C6-acid [Suc-C6S] displayed an SI conversion rate at sucrase/isomaltase (SI) [1] (setting [7]) of 2%. Also, the KM/Ki is given as 1 at sucrase/isomaltase (SI) [4], 6.2 on sucrase/isomaltase (SI) [5] (SI/sucrose) and 0.26 at sucrase/isomaltase (SI) [6] (SI/maltose). For the same compound, the “Type (of inhibition)” value at sucrase/isomaltase (SI) [4] was “NK”. In addition, the results for the “inhibitor strength (in words)” value on sucrase/isomaltase (SI) [4], at sucrase/isomaltase (SI) [5] (SI/sucrose) and at sucrase/isomaltase (SI) [6] (SI/maltose) were “strong to very strong”, “strong to very strong” and “inhibitory action”, respectively. Moreover, the Ki at sucrase/isomaltase (SI) [4] (read-out: Ki) is 73 mM; on sucrase/isomaltase (SI) [4] (read-out: Kii), 3 mM; on sucrase/isomaltase (SI) [5] (setting [9]) it was 9 mM; on sucrase/isomaltase (SI) [5] (setting [10]), 9 mM; on sucrase/isomaltase (SI) [6] (setting [11]), 43 mM; on sucrase/isomaltase (SI) [6] (setting [12]), 5 mM. Besides, in assay [3] (read-out: Kii), the Ki came out at 4 mM. This compound also displayed a GM conversion rate in assay [2] (setting [7]) of 0%.
